Among the data in PubChem BioAssay (NCI) are TGI and GI50 values, retold here.

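All cell lines were grown in 96-well plates and treated with compound for 48 hours. Here, GI50 denotes the concentration required for 50% inhibition of growth. TGI: concentration producing complete growth inhibition.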 A value given as a limit tells only on which side of the number the result lay.

Test systems include UACC-62 melanoma; SNB-75 CNS; U251 CNS; MOLT-4 leukemia; HT29 colon; NCI-H23 lung; RPMI-8226 leukemia; EKVX NSCLC; CCRF-CEM leukemia; RXF 393 renal.
Holding throughout (assay): NCI anticancer screen, dose series, 48 h

For the molecule `O=C1C(=Cc2ccc(F)cc2)C(=O)c2ccccc21`, the TGI with UACC-62 melanoma is more than 100 µM; in the assay on SNB-75 CNS, 95.4 µM; in the assay on U251 CNS it was more than 100 µM; in the assay on MOLT-4 leukemia, more than 100 µM; with HT29 colon it was more than 100 µM; in the assay on NCI-H23 lung, more than 100 µM. For the same molecule, the TGI in the assay on RPMI-8226 leukemia, with EKVX NSCLC and with CCRF-CEM leukemia was more than 100 µM each time.
On to `C=CCCC(=O)CC(=O)OCc1ccccc1`, for which the TGI in the assay with UACC-62 melanoma, with SNB-75 CNS, with U251 CNS, in the assay on MOLT-4 leukemia, with HT29 colon and in the assay with NCI-H23 lung was more than 100 µM throughout. For the same molecule, the TGI in the assay with RPMI-8226 leukemia, with EKVX NSCLC and in the assay on CCRF-CEM leukemia was more than 100 µM throughout.
For the molecule `COC(=O)C(=O)C(C#N)c1c(Cl)cccc1Cl` (centres undefined), the TGI with UACC-62 melanoma, in the assay with SNB-75 CNS, in the assay with MOLT-4 leukemia, in the assay on HT29 colon, with NCI-H23 lung and with RPMI-8226 leukemia was more than 100 µM in each case. For the same molecule, the TGI with EKVX NSCLC and in the assay with RXF 393 renal was more than 100 µM each time.
In the case of `CCSc1nc(N)c2cnn(CC)c2n1`, the GI50 is 4.8 µM in the assay with UACC-62 melanoma; 4.12 µM with U251 CNS; 3.99 µM in the assay on MOLT-4 leukemia; 10.3 µM in the assay with NCI-H23 lung; 2.38 µM with RPMI-8226 leukemia; 7.79 µM with EKVX NSCLC. Moreover, the figures for the GI50 in the assay with RXF 393 renal and in the assay on CCRF-CEM leukemia were 2.98 µM and 3.58 µM, respectively. The TGI in the assay with UACC-62 melanoma is 24.5 µM; in the assay on U251 CNS it was 86 µM; in the assay on MOLT-4 leukemia, more than 100 µM; in the assay on NCI-H23 lung, 22 µM; in the assay with RPMI-8226 leukemia it was 6.44 µM; with EKVX NSCLC, 34.1 µM. Besides, the TGI in the assay with RXF 393 renal came to 7.14 µM; with CCRF-CEM leukemia, 10.8 µM.
With `O=C1CC2OCC=C3CN4CCC5(C(=O)O)C(N1)C2C3CC45` (centres undefined), the TGI in the assay with UACC-62 melanoma, with SNB-75 CNS, in the assay on U251 CNS, in the assay with MOLT-4 leukemia, in the assay on HT29 colon and in the assay with NCI-H23 lung was more than 100 µM in each case. Moreover, the TGI in the assay with EKVX NSCLC, with RXF 393 renal and in the assay with CCRF-CEM leukemia was more than 100 µM each time.
Turning to `CC(=O)/C(=C/N1CCN(C(=O)c2ccco2)C1=S)C(=O)c1ccccc1`, the GI50 in the assay with UACC-62 melanoma was 7.33 µM; in the assay with SNB-75 CNS it was 10.9 µM; in the assay with U251 CNS it was 13.4 µM; in the assay with MOLT-4 leukemia it was 15.9 µM; in the assay with HT29 colon it was 16.9 µM; in the assay with RPMI-8226 leukemia, 3.79 µM. Also, in the assay with EKVX NSCLC, the GI50 is 7.9 µM. The TGI with UACC-62 melanoma was 16.9 µM; with SNB-75 CNS, 35.9 µM; in the assay with U251 CNS, more than 50 µM; in the assay on MOLT-4 leukemia, more than 50 µM; in the assay on HT29 colon it was more than 50 µM; in the assay with RPMI-8226 leukemia it was 18.2 µM. In the assay with EKVX NSCLC, this molecule showed a TGI of 21.3 µM.
With `C1CC[N-]CC1.CC(=N\O)/C(C)=N/O.CC(=N\O)/C(C)=N/O.C[CH-]C(C)O.[Co+2]`, the GI50 in the assay on UACC-62 melanoma was 15.6 µM; in the assay on SNB-75 CNS, 19.5 µM; in the assay with U251 CNS it was 17.7 µM; with MOLT-4 leukemia it was 17.4 µM; in the assay on HT29 colon, 34.3 µM; with RPMI-8226 leukemia it was 18.8 µM. Moreover, the GI50 in the assay on EKVX NSCLC was 35.7 µM; in the assay with RXF 393 renal, 15 µM. Further, the TGI with UACC-62 melanoma was 29 µM; in the assay on SNB-75 CNS, 71.4 µM; in the assay on U251 CNS, 31.5 µM; in the assay on MOLT-4 leukemia it was 42.2 µM; in the assay on HT29 colon, more than 100 µM; in the assay on RPMI-8226 leukemia, 43.4 µM. In addition, the values for the TGI with EKVX NSCLC and in the assay with RXF 393 renal were more than 100 µM and 43.8 µM, respectively.
For the molecule `Cc1c(Cl)cccc1NC(=O)C(=O)c1c(O)c2ccc(O)cc2oc1=O`, the TGI in the assay with UACC-62 melanoma, in the assay with SNB-75 CNS, with U251 CNS, in the assay with MOLT-4 leukemia, in the assay on HT29 colon and in the assay with NCI-H23 lung was more than 100 µM each time. For the same molecule, the TGI in the assay on EKVX NSCLC, in the assay with RXF 393 renal and in the assay with CCRF-CEM leukemia was more than 100 µM throughout.
For `C=Cc1cc(OC)c2c(c1)c(=O)oc1c2cc(OC)c2c(O)ccc(C3OC(C(C)O)C(O)C3O)c21` (centres undefined), the GI50 was 0.0112 µM with UACC-62 melanoma; 0.0157 µM in the assay with SNB-75 CNS; 0.00666 µM in the assay with HT29 colon; 0.000928 µM in the assay on NCI-H23 lung; 0.00403 µM with EKVX NSCLC; 0.00181 µM in the assay with RXF 393 renal. In the assay with CCRF-CEM leukemia, the GI50 was 0.00245 µM. Further, the TGI was 0.0296 µM in the assay with UACC-62 melanoma; 0.0515 µM in the assay with SNB-75 CNS; more than 1 µM in the assay on HT29 colon; 0.0151 µM in the assay on NCI-H23 lung; 0.0336 µM in the assay with EKVX NSCLC; 0.00384 µM with RXF 393 renal. Also, the TGI in the assay on CCRF-CEM leukemia was 0.0312 µM.
On to `COC(=O)C(C)Oc1ccc(O)cc1` (centres undefined), for which the TGI with UACC-62 melanoma, in the assay on SNB-75 CNS, in the assay on U251 CNS, with HT29 colon, in the assay on NCI-H23 lung and in the assay on RPMI-8226 leukemia was more than 100 µM throughout. Besides, the TGI with EKVX NSCLC and with CCRF-CEM leukemia was more than 100 µM each time.
With `O=C1C(OC(=O)c2ccccc2)=C(c2ccc(O)cc2)C(=O)C(OC(=O)c2ccccc2)=C1c1ccc(O)cc1`, the TGI in the assay with UACC-62 melanoma, in the assay on SNB-75 CNS, in the assay with U251 CNS, with MOLT-4 leukemia, with HT29 colon and in the assay with NCI-H23 lung was more than 100 µM in each case. For the same molecule, the TGI in the assay on RPMI-8226 leukemia, with EKVX NSCLC and with CCRF-CEM leukemia was more than 100 µM throughout.
`C#C[C@@H](CCCC)OC(=O)N[C@H](C)c1ccccc1`: the TGI is more than 100 µM with UACC-62 melanoma; 97.5 µM in the assay with SNB-75 CNS; more than 100 µM in the assay with U251 CNS; more than 100 µM with MOLT-4 leukemia; more than 100 µM in the assay on HT29 colon; 87.6 µM with RPMI-8226 leukemia. The TGI in the assay on EKVX NSCLC and in the assay on CCRF-CEM leukemia was more than 100 µM throughout.
